Blank lines part the entries; values can stand above or below the compound they belong to.
Tests used:
Gq proteins = molecular target: T1, Gq proteins (Homo sapiens, UniProt P50148); test: Competition binding at human platelet membrane preparations; conditions: for inhibition or modulation of [^3H]PSB‐15900 binding by G protein inhibitors: concentrations up to 100 μM, preincubation for 3 hr
T1 construct: Native cell membrane preparations from rat brain cortex and human blood platelets; host or cells: human platelets (intact suspension or membrane preparation)
T1 sequence (P50148 1-359): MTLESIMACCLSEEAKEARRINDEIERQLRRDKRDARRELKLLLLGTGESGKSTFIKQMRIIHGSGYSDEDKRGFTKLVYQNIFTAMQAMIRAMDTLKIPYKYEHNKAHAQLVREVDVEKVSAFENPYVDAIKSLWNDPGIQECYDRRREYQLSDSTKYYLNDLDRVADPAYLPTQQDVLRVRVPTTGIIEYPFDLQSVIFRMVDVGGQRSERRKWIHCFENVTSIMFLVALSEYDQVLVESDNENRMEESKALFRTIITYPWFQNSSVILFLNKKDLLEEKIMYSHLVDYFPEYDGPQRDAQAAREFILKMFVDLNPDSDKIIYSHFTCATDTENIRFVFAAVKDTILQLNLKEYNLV
Experimental: Apheresis‐purified human thrombocyte‐plasma concentrates were centrifuged (1,000 g at 4°C for 10 min), and the supernatant was decanted and centrifuged again (at 48,400 g, 4°C, for 60 min). The supernatant was kept and used as platelet‐poor plasma for control experiments; the formed pellet was resuspended in buffer 1 (50‐mM Tris–HCl, 5‐mM EDTA, and 150‐mM NaCl) and centrifuged at 48,400 g, 4°C for 60 min. The supernatant was discarded again and the pellet was resuspended in buffer 2 (5‐mM Tris–HCl and 5‐mM EDTA). The cell suspension was homogenized using an Ultra‐Turrax® (IKA Laborechnik, Staufen, Germany) for 1 min at a speed level of 4, subsequently transferred into cryovials, and stored at −80°C before use (the preparation is stable for several months). For radioligand binding assays, 50 μg of protein per vial was used, determined by the method of Bradford (Bio‐Rad Protein Assay).
The experiments were performed in 50‐mM Tris–HCl buffer, pH 7.4. The final assay volume of 200 μl contained 5 μl of test compound in DMSO, 50 μl of [^3H]PSB‐15900 or [^3H]PSB‐16254, respectively, in buffer, 5 nM of final concentration, and 100 μl of human platelet membrane preparation (50 μg of protein) or intact human platelets (7.5 × 10^6 cells/vial). Non‐specific binding was determined in the presence of 5‐μM FR. The incubation was started by the addition of membrane preparation and was performed at 37°C for 1 hr with gentle shaking. It was terminated by rapid vacuum filtration through GF/C glass‐fibre filters using a Brandel 24‐well harvester. The filters were rinsed three times with approximately 3 ml each of ice‐cold Tris–HCl buffer, 50 mM, pH 7.4 containing 0.1% Tween 20 and 0.1% BSA, to separate bound from free radioligand. The filters were punched out and transferred to scintillation vials. Luma Safe® scintillation cocktail (2.5 ml) was added, and after 6 hr of incubation, the samples were counted for 1 min each, using a liquid scintillation counter (counting efficiency 53%). Experiments in the presence of GTP were additionally performed after preincubation of the membrane preparation with GTP for 1 hr. pIC50 and pKi values were calculated using equations for one‐site competition as implemented in GraphPad Prism 6.01 (GraphPad Inc., La Jolla, CA, USA).

[1] = test system: Gq signalling via endogenously expressed M3 receptor; test: Calcium mobilization assay, carbachol-induced (M3 receptor) in 1321N1 astrocytoma cells; format: cell-based, human
Experimental: (§1) The functional activity of YM, FR, and Ebselen as Gq protein inhibitors was determined by assessing their ability to antagonize ADP‐induced calcium mobilization in 1321N1 astrocytoma cells stably transfected with the human P2Y1 receptor, which is a Gq‐coupled receptor. In addition, the compounds' inhibitory effects on Carbachol‐induced calcium mobilization were studied in the same cell line, which endogenously express the Gq‐coupled muscarinic M3 ACh receptor. The assays were performed according to a previously described procedure (Rafehi et al., 2017) using a NOVOstar microplate reader (BMG Labtech, Offenburg, Germany).

[2] = test system: Gq signalling via recombinantly expressed human P2Y1 receptor; test: Calcium mobilization assay, ADP-induced (P2Y1 receptor) in 1321N1 astrocytoma cells; format: cell-based
Experimental: as §1

[3] = test system: Gq signalling (IP1 production) via Dq; test: IP1 assay in brown preadipocytes expressing Gq-coupled designer GPCR (Dq), CNO; format: cell-based, mouse; conditions: Ebselen 50 μM
Experimental: (§2) Intracellular concentrations of the second messenger IP1 in brown preadipocytes were quantified using the HTRF‐IP1 kit (Cisbio Bioassays) following the manufacturer's instructions. […] For ET‐1 experiments, non‐transduced preadipocytes were used. Cells were cultivated for 48 hr in GM (37°C, 5% CO2). For the assay, cells were trypsinized, and cell pellet was washed with PBS. Cell pellet was then resuspended in stimulation buffer containing 50‐mM LiCl and transferred to a 384‐well microtitre plate at a density of 100,000 cells per well in 7 μl of stimulation buffer. After 10 min of incubation, 3.5 μl of stimulation buffer containing inhibitors (50 μM of Ebselen, 1 μM of FR) were added for 1 hr followed by addition of 3.5 μl of stimulation buffer containing agonists (ET‐1, 10 nM; CNO, 10 μM) for 30 min; 3 μl of IP1‐d2 conjugate followed by 3 μl of europium cryptate‐labelled anti‐IP1 antibody dissolved in lysis buffer were added to the cells. After a further dark incubation of 1 hr at room temperature, time‐resolved fluorescence was measured at 620 and 665 nm with the EnSpire (Perkin Elmer) multimode plate reader.

[4] = test system: Gq signalling (IP1 production) induced by ET‐1; test: IP1 assay in brown preadipocytes, ET-1; format: cell-based, mouse; conditions: Ebselen 50 μM pretreatment, ET‐1 10 nM
Experimental: as §2

[5] = test system: primary murine brown adipocytes; test: Differentiation of primary murine brown adipocytes (Oil Red O, UCP-1, PPARγ); format: cell-based, mouse; conditions: Ebselen 50 μM, 9 days
Experimental: Ten‐ to 12‐week‐old pregnant wild‐type C57Bl6/J mice were purchased from Charles River and housed in pathogen‐free environment under a 12‐hr light/12‐hr dark cycle having free access to standard rodent diet and water. Brown adipose tissue (BAT)‐derived mesenchymal stem cells were isolated from interscapular BAT of newborn wild‐type mice and further cultured as previously described (Klepac et al., 2016). Specifically, 170,000 cells per well were seeded in growth medium (GM; DMEM supplemented with 10% FBS and 1% penicillin–streptomycin mixture from Sigma‐Aldrich) in a six‐well plate (Day −4); 48 hr later (Day −2), GM was replaced by differentiation medium (DM), which is GM supplemented with 20‐nM insulin and 1‐nM triiodothyronine. At Day 0, cells were treated for 48 hr with BAT induction medium (DM supplemented with 0.5‐mM isobutylmethylxanthine and 1‐μM dexamethasone). For the next 5 days, cells were treated with DM that was replenished every second day. The indicated treatments were added from Day −2 to Day +7 for 9 days to the media, endothelin‐1 (ET‐1; Tocris, 10 nM), or Ebselen (50 μM). Ebselen was added 3 hr prior to ET‐1 treatment. On Day +7, differentiation of cells into mature adipocytes was analysed using Oil Red O staining of lipid droplets. Mature brown adipocytes were washed with PBS and then fixed in 4% paraformaldehyde. […]

SMILES: N[C@@H](CS)C(=O)N1CCn2cc(-c3ccccc3)nc2[C@@H]1CC1CCCCC1 [BIM‐46174]
inhibition or modulation of [^3H]PSB‐15900 binding by G protein inhibitors (Gq proteins): did not show any inhibition or modulation

SMILES: N[C@@H](CSSC[C@H](N)C(=O)N1CCn2cc(-c3ccccc3)nc2[C@@H]1CC1CCCCC1)C(=O)N1CCn2cc(-c3ccccc3)nc2[C@@H]1CC1CCCCC1 [BIM‐46187]
inhibition or modulation of [^3H]PSB‐15900 binding by G protein inhibitors (Gq proteins): did not show any inhibition or modulation

Ki (Gq proteins; versus [^3H]PSB‐15900 (5 nM), human platelet membranes, 37°C, read-out: pKi (converted)): 9.33 µM
IC50 ([1]; Homo sapiens, versus Carbachol (EC80), M3 receptor, read-out: pIC50, inhibition of calcium mobilization (converted)): 4.37 µM
IC50 ([2]; Homo sapiens, versus ADP (EC80), P2Y1 receptor, 1321N1 astrocytoma cells, read-out: pIC50, inhibition of calcium mobilization (converted)): 2.34 µM
SMILES: O=c1c2ccccc2[se]n1-c1ccccc1 [Ebselen]
extent of block of carbachol‐induced calcium mobilization [1]: completely blocked
extent of block of ADP‐induced calcium mobilization ([2]; recombinant 1321N1 astrocytoma cells): completely blocked
effect on CNO‐induced increase in IP1 levels ([3]; CNO 10 μM, Gq‐DREADD expressing preadipocytes): significantly reduced
effect on basal IP1 levels ([3]; absence of agonist (Ctrl), acute treatment): did not affect
effect on ET‐1‐induced IP1 production [4]: attenuated
effect on differentiation of brown adipocytes [5]: enhanced
effect on ET‐1‐induced inhibition of brown adipogenesis ([5]; ET‐1 10 nM): rescued

modulation of [^3H]PSB‐15900 binding by nucleotides (Gq proteins; 100 μM and 1 mM, human platelet membranes, 5 nM radioligand): not allosterically modulated
SMILES: Nc1nc2c(ncn2[C@@H]2O[C@H](COP(=O)(O)OP(=O)(O)OP(=O)(O)O)[C@@H](O)[C@H]2O)c(=O)[nH]1 [GTP]
